Results on 12 compounds are retold here after patent publication US6291467A, “Heteroaromatic derivatives” (priority 2000, dated 2001).

The target of data set [1] is T1, human D4.2 receptor (Homo sapiens, UniProt P21917, DEL265-296).
T1 sequence (P21917 with tags, fused parts or gaps DEL265-296): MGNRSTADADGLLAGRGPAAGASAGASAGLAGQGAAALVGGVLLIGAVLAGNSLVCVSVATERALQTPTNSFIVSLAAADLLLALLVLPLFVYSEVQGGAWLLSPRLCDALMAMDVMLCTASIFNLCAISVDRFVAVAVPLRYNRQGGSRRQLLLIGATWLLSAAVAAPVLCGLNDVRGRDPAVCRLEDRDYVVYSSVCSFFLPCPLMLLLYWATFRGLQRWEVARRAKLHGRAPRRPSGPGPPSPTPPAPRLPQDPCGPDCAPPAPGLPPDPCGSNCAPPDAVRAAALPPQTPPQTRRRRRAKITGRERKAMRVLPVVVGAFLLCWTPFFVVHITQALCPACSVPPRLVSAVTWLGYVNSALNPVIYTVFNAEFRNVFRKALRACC
Nature of the data set: Dopamine D4 Receptor Binding Assay (displacement of [^3 H]spiperone). The following applies: human D4.2 in CHO cell membranes, pH 7.4, 27° C., 2 hours. On the procedure: 1. Dopamine D4 Receptor Binding Assay
Chinese hamster ovarium (CHO) cell membranes wherein human D4.2 receptor was expressed were used as a receptor preparation.
[^3 H]spiperone was used as [^3 H]-labeled ligand.
A binding reaction using the [^3 H]-labeled ligand was carried out according to the following method as described in Eur. J. Pharmacol., 233, 173(1993).
Dopamine D4.2 Receptor Binding Assay: The CHO cell membranes wherein human D4.2 receptor was expressed, [^3 H]spiperone ([…]) and each test drug were reacted in 50 mM Tris-hydrochloric acid buffer (pH 7.4) containing 5 mM EDTA, 1.5 mM CaCl2, 5 mM KCl and 120 mM NaCl at 27° C. for 2 hours.
After completion of the reaction, the reaction solution was filtered by suction through a glass filter (GF/B), and the radioactivity on the filter was measured by a liquid scintillation spectrometer.
The binding under the reaction in the presence of 10 μM haloperidol was defined as non-specific binding of [^3 H]spiperone, and the difference between the total binding and the non-specific binding was defined as specific binding.

The target in data set [2] is Dopamine D2 Receptor (Rattus norvegicus, UniProt P61169). Nature of the data set: Dopamine D2 Receptor Binding Assay (displacement of [^3 H]raclopride). The following applies: rat striatum membrane, [^3 H]raclopride (1 nM), 25° C., an hour. The protocol: 2. Dopamine D2 Receptor Binding Assay
Sequence of Dopamine D2 Receptor (P61169 whole entry): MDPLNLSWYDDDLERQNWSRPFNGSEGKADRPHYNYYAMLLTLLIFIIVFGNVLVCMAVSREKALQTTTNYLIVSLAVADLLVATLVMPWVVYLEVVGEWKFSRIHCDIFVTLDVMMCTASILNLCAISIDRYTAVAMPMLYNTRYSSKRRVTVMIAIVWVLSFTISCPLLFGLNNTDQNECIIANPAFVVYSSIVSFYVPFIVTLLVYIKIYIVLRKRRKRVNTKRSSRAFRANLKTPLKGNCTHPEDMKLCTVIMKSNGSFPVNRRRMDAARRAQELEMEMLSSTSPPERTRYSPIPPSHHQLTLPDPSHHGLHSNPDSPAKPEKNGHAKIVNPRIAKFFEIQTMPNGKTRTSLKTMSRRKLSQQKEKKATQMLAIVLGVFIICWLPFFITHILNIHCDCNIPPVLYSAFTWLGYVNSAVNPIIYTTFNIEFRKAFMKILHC
Rat striatum membrane was used as a receptor preparation.
[^3 H]raclopride was used as [^3 H]-labeled ligand.
A binding reaction using the [^3 H]-labeled ligand was carried out according to the following method as described in Mol. J. Pharmacol., 43, 749(1993).
Preparation of Receptor Preparation: Rat striatum was homogenized in 50 mM Tris-hydrochloric acid buffer (pH 7.4), centrifuged at 48,000×g, and the precipitate was washed once with a Tris-hydrochloric acid buffer. The precipitate was suspended in 50 mM Tris-hydrochloric acid buffer (pH 7.4) containing 120 mM NaCl, 1.5 mM KCl, 2 mM CaCl2 and 1 mM MgCl2 to give a membrane preparation.
Dopamine D2 Receptor Binding Assay: The membrane preparation (0.5 mg of protein/ml), [^3 H]raclopride (1 nM) and each test drug were reacted at 25° C. for an hour.
After completion of the reaction, the reaction solution was filtered by suction through a glass filter (GF/B), and the radioactivity on the filter was determined by a liquid scintillation spectrometer.
The binding under the reaction in the presence of 10 μM haloperidol was defined as non-specific binding of [^3 H]raclopride, and the difference between total binding and non-specific binding was defined as specific binding.

The test system of data set [3] is dopamine D4 receptors. The following applies: Nature, 350, 610-614 (1991); cited from earlier work.
Data set [4] has as its system drug-resistant schizophrenia and negativism. The following applies: clinical investigation, Arch. Gen. Psych., 45, 789-796 (1988); cited from earlier work.
For data set [5] the following is noted: Summary and Clinical Data, Sandoz, Canada Inc. (1990); cited from earlier work.

The structures appear in SMILES notation. Structures can show the parent of a compound that is named as a salt.

For orientation: IC50 means the point on the concentration scale where inhibition reaches its midpoint. A higher IC50 goes with lower potency. In the case of `Oc1nc(-c2ccc(F)cc2)c(CCN2CCC(=Cc3cccc(F)c3)CC2)s1` [Compound A-10, 2-hydroxy-4-(4-fluorophenyl)-5-[2-[4-(3-fluorobenzylidene)piperidin-1-yl]ethyl]thiazole], the IC50 was 1.96 nM in data set [1] and 73.9 nM in data set [2].
For `Cc1ccc(-c2[nH]ncc2CCN2CCC(=Cc3ccc(F)cc3)CC2)cc1` [Compound A-04], in that order: 1.96 nM and 55.9 nM.
The corresponding values for `Nc1ncc(CCN2CCC(=Cc3ccccc3F)CC2)c(-c2ccc(F)cc2)n1` [Compound A-16] are 1.96 nM and 129 nM.
The corresponding values for `Fc1ccc(-c2ncncc2CCN2CCC(=Cc3ccccc3F)CC2)cc1` [Compound A-12, 4-(4-fluorophenyl)-5-[2-[4-(2-fluorobenzylidene)piperidin-1-yl]ethyl]pyrimidine dihydrochloride] are 2.15 nM and 359 nM.
As for `CN1CCN(C2=Nc3cc(Cl)ccc3Nc3ccccc32)CC1` [clozapine], the “affinity for dopamine D4 receptors relative to dopamine D2 receptors” value in data set [3] is “higher than that for dopamine D2 receptors”. In addition, in data set [4], the “effect on drug-resistant schizophrenia and negativism” value was “effective on drug-resistant schizophrenia and negativism”; the extrapyramidal diseases result is listed as “hardly causes extrapyramidal diseases”. In data set [5], the “blood disorder (agranulocytosis)” value was “serious defect of causing blood disorder called agranulocytosis” and the death from agranulocytosis result was “cases of death therefrom have been reported”.
For the compound `O=C(c1ccc(F)cc1)C1CCN(CCc2sc(O)nc2-c2ccc(F)cc2)CC1` [Compound A-09], the IC50 in data set [1] amounted to 2.85 nM; in data set [2], 107 nM.
Turning to `Fc1ccc(C=C2CCN(CCc3cn[nH]c3-c3ccc(F)cc3)CC2)cc1` [Compound A-01], the IC50 in data set [1] came out at 1.23 nM; in data set [2] it was 152 nM.
For `Fc1ccc(-c2[nH]ncc2CCN2CCC(=Cc3ccccc3F)CC2)cc1` [Compound A-03, 5-(4-fluorophenyl)-4-[2-[4-(2-fluorobenzylidene)piperidin-1-yl]ethyl]pyrazole oxalate], in that order: 0.85 nM and 26.6 nM.
For `Fc1ccc(-c2[nH]ncc2CCN2CCC(=Cc3cccc(F)c3)CC2)cc1` [Compound A-02], in that order: 1.12 nM and 32 nM.
For `Cc1ccc(C=C2CCN(CCc3cn[nH]c3-c3ccc(F)cc3)CC2)cc1` [Compound A-06], in that order: 2.85 nM and 171 nM.
Take `CSc1nc(-c2ccc(F)cc2)c(CCN2CCC(=Cc3cccc(F)c3)CC2)[nH]1` [Compound A-08]: the IC50 worked out at 1.12 nM in data set [1] and 61.4 nM in data set [2].
For `Fc1ccc(-c2nc(S)ncc2CCN2CCC(=Cc3ccccc3F)CC2)cc1` [Compound A-13, 4-(4-fluorophenyl)-5-[2-[4-(2-fluorobenzylidene)piperidin-1-yl]ethyl]-2-mercaptopyrimidine], the figures for the IC50 in data set [1] and in data set [2] were 1.35 nM and > 1000 nM, respectively.
